The text below walks through data of patent publication US20130065897A1, “COMPOUNDS, PREPARATION AND USES THEREOF” (PETER MACCALLUM CANCER INSTITUTE, priority 2009, published 2013).

One series concerns KHYG-1 NK cells. The series can be described thus: Toxicity to KHYG-1 NK cells (trypan blue viability). It is filed as cell-based. As to conditions: viable cells as percentage of total (% viability), 18 to 24 hours.
The target of another series is recombinant perforin (UniProt P10820). Format: cell-based. As to conditions: read-out: Jurkat IC50; recombinant perforin pre-incubated 30 min with compound; 51Cr-labelled Jurkat cells, 0.1% BSA, 37° C. 4 hours. A digest of the protocol:
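Jurkat T lymphoma target cells labelled 1 h with 100 μCi ^51Cr, washed, resuspended at 1×10^5 cells/mL in RPMI with 0.1% BSA; lysis read as ^51Cr release into supernatant by gamma counting. Triplicate points; IC50 from the concentration range.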

Series [1] concerns KHYG-1 NK cell-mediated lysis of K562 cells. Kind of series: Inhibition of KHYG-1 NK cell-mediated lysis of K562 cells (51Cr release). As to conditions: K562 target cells, Effector:Target 2:1, 4 hours 37° C. It is filed as cell-based. A digest of the protocol: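 KHYG-1 NK effector cells in RPMI+0.1% BSA were preincubated with compounds up to 20 μM for 20 minutes at RT. ⁵¹Cr-labelled K562 targets were then added (E:T 2:1) for 4 hours at 37 °C, and ⁵¹Cr release gamma-counted as percent specific cytotoxicity, mean of triplicates ± SEM.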

Chain of recombinant perforin (P10820 whole entry): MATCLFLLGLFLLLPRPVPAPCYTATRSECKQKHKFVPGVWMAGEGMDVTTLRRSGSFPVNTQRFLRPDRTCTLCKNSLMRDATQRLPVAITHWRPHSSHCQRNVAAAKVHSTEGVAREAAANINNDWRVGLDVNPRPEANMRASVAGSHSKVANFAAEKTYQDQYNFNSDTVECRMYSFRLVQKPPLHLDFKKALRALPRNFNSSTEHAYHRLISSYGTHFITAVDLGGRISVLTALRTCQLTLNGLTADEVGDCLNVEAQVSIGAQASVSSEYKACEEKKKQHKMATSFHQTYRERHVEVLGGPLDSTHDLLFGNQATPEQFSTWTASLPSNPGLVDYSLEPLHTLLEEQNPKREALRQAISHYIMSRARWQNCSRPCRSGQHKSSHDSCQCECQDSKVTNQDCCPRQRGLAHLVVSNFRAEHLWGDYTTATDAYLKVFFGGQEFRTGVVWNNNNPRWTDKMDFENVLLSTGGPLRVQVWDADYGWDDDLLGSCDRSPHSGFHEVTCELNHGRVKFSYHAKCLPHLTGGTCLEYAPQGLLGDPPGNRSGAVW

With `O=C1NC(=S)N/C1=C/c1cc2cc(-c3ccc4c(c3)COC4=O)ccc2o1` [Cmpd 10, (2)-5-((5-(1-Oxo-1,3-dihydroisobenzofuran-5-yl)benzofuran-2-yl)methylene)-2-thioxoimidazolidin-4-one], the melting point was > 300 °C. In the series on KHYG-1 NK cells, the “percent viable KHYG-1 cells (trypan blue) at 20 μM” value (“percent viable KHYG-1 cells” for short) turned out to be 88%. On recombinant perforin, the IC50 stood at 0.62 µM. Moreover, at 20 µM the inhibition in series [1] was 51%.

Turning to `O=C1NC(=S)N/C1=C/c1cc2ccc(-c3ccc4c(c3)COC4=O)cc2[nH]1` [Cmpd 11, (E,Z)-5-((6-(1-Oxo-1,3-dihydroisobenzofuran-5-yl)-1H-indol-2-yl)methylene)-2-thioxoimidazolidin-4-one], the melting point is > 300 °C. In addition, the “percent viable KHYG-1 cells” value with KHYG-1 NK cells is recorded as 86%. At recombinant perforin, the IC50 turned out to be 2.34 µM. The compound further came in with an inhibition at 20 µM in series [1] of 100%.

Consider `O=C1NC(=S)N/C1=C/c1cc2cc(-c3ccc4c(c3)COC4=O)ccc2[nH]1` [Cmpd 12, (E,Z)-5-((5-(1-Oxo-1,3-dihydroisobenzofuran-5-yl)-1H-indol-2-yl)methylene)-2-thioxoimidazolidin-4-one], for which the melting point is > 300 °C. For the same compound, the “percent viable KHYG-1 cells” value with KHYG-1 NK cells stood at 94%. Moreover, the IC50 on recombinant perforin amounted to 0.72 µM. In series [1], the inhibition at 20 µM was 74%.

For the compound `O=C1NC(=S)N/C1=C\c1ccc2ccc(-c3ccc4c(c3)COC4=O)cc2n1` [Cmpd 13], the melting point was > 310 °C. For the same compound, the “percent viable KHYG-1 cells” value in the series with KHYG-1 NK cells was 70%. In addition, the IC50 on recombinant perforin was 1.72 µM. For the same compound, the inhibition at 20 µM in series [1] was determined as 52%.

`COc1ccc(-c2ccc(/C=C3/NC(=S)NC3=O)s2)cc1` [Cmpd 22, (E,Z)-5-((5-(4-Methoxyphenyl)thiophen-2-yl)methylene)-2-thioxoimidazolidin-4-one] came in with a melting point of 288 to 293 °C. In addition, the “percent viable KHYG-1 cells” value in the series on KHYG-1 NK cells is 100%. At recombinant perforin, the IC50 worked out at 8.93 µM. In series [1], the inhibition at 20 µM is 78%.

Consider `O=C1NC(=S)N/C1=C/c1ccc(-c2ccc(C(=O)NCCN3CCOCC3)cc2)s1` [Cmpd 45, (E,Z)-N-(2-Morpholinoethyl)-4-(5-((5-oxo-2-thioxoimidazolidin-4-ylidene)methyl)thiophen-2-yl)benzamide], for which the melting point lay in the range of 248 to 252 °C. Besides, in the series on KHYG-1 NK cells, the “percent viable KHYG-1 cells” value is listed as 88%. Moreover, the IC50 at recombinant perforin was > 20 µM. Besides, the inhibition at 20 µM in series [1] came to 78%.

Consider `O=C1NC(=S)N/C1=C/c1cnc(-c2ccc3c(c2)COC3=O)o1` [Cmpd 54, (E,Z)-5-((2-(1-Oxo-1,3-dihydroisobenzofuran-5-yl)oxazol-5-yl)methylene)-2-thioxoimidazolidin-4-one], for which the melting point was > 295 °C. Further, the “percent viable KHYG-1 cells” value in the series on KHYG-1 NK cells came out at 100%. In series [1], this compound came in with an inhibition at 20 µM of 55%.

For `O=C1NC(=S)N/C1=C\c1cnc(-c2ccc3c(c2)COC3=O)s1` [Cmpd 55, (E,Z)-5-((2-(1-Oxo-1,3-dihydroisobenzofuran-5-yl)thiazol-5-yl)methylene)-2-thioxoimidazolidin-4-one], the melting point is > 300 °C. Also, the “percent viable KHYG-1 cells” value in the series with KHYG-1 NK cells is on record as 95%. At recombinant perforin, the IC50 turned out to be 1.72 µM. For the same compound, 20 µM produced 53% inhibition in series [1].

Turning to `O=C1NC(=S)N/C1=C\c1cc(-c2ccc3c(c2)COC3=O)no1` [Cmpd 58, (E,Z)-5-((3-(1-Oxo-1,3-dihydroisobenzofuran-5-yl)isoxazol-5-yl)methylene)-2-thioxoimidazolidin-4-one], the melting point was > 300 °C. Further, in the series on KHYG-1 NK cells, the “percent viable KHYG-1 cells” value is on record as 82%. Further, in series [1], at 20 µM the inhibition was 39%.

Turning to `O=C1NC(=S)N/C1=C\c1csnc1-c1ccc2c(c1)COC2=O` [Cmpd 59, (E,Z)-5-((3-(1-Oxo-1,3-dihydroisobenzofuran-5-yl)isothiazol-4-yl)methylene)-2-thioxoimidazolidin-4-one], the melting point is > 300 °C. Besides, the “percent viable KHYG-1 cells” value in the series on KHYG-1 NK cells worked out at 93%. In series [1], this compound returned an inhibition at 20 µM of 24%.

Regarding `O=C1NC(=S)N/C1=C/c1ccc(-c2ccc3c(c2)CN(CCN2CCOCC2)C3=O)s1` [Cmpd 67, (E,Z)-2-(2-Morpholinoethyl)-5-(5-((5-oxo-2-thioxoimidazolidin-4-ylidene)methyl)thiophen-2-yl)isoindolin-1-one], the melting point is 261 to 264 °C. In the series on KHYG-1 NK cells, the “percent viable KHYG-1 cells” value stood at 73%. Moreover, 20 µM produced 78% inhibition in series [1].

As to `CN(C)CCCN1Cc2cc(-c3ccc(/C=C4/NC(=S)NC4=O)s3)ccc2C1=O` [Cmpd 74, (E)-2-(3-(Dimethylamino)propyl)-5-(5-((5-oxo-2-thioxoimidazolidin-4-ylidene)methyl)thiophen-2-yl)isoindolin-1-one], the melting point is 212 °C (dec.). The “percent viable KHYG-1 cells” value in the series on KHYG-1 NK cells was 82%. On recombinant perforin, the IC50 is > 20 µM. Further, in series [1], testing at 20 µM gave an inhibition of 53%.

In the case of `O=C1NC(=S)N/C1=C/c1cc2cc(-c3ccc4c(c3)COC4=O)ccc2s1` [Cmpd 79, (E,Z)-5-((5-(1-Oxo-1,3-dihydroisobenzofuran-5-yl)benzo[b]thiophen-2-yl)methylene)-2-thioxoimidazolidin-4-one], the melting point is > 305 °C. The “percent viable KHYG-1 cells” value in the series with KHYG-1 NK cells came to 72%. The inhibition at 20 µM in series [1] came out at 59%.

With `O=C1NC(=S)N/C1=C/c1cc2ccc(-c3ccc4c(c3)COC4=O)cc2s1` [Cmpd 80, (E,Z)-5-((6-(1-Oxo-1,3-dihydroisobenzofuran-5-yl)benzo[b]thiophen-2-yl)methylene)-2-thioxoimidazolidin-4-one], the melting point was > 310 °C. For the same compound, in the series on KHYG-1 NK cells, the “percent viable KHYG-1 cells” value is 75%. Further, the IC50 at recombinant perforin was 0.36 µM. In series [1], this compound returned an inhibition at 20 µM of 55%.

Broadly, the IC50 is the point on the concentration scale where inhibition reaches its midpoint. Usually melting point stands for the temperature of the solid-liquid transition. For orientation: inhibition means how much of the control response was suppressed. A lower inhibition goes with little suppression.
